# Experimental data from patent US12209087B2, “AKT1 modulators” (Alterome Therapeutics, Inc., priority 2022, dated 2025).
# Target: T1, full length AKT E17K (Homo sapiens, UniProt P31749, E17K)
# T1 construct: host or cells: HEK-293 (ATCC CRL-1573)
# Assay: NanoBRET Target Engagement (TE) Assay
# Format: cell-based
# Conditions: competitive tracer displacement in living cells, read-out: AKT1 E17K IC50
# Procedure, shortened: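 Compound and tracer incubated 2 h before luminescence at donor 450 nm and acceptor 600 nm, with extracellular signal inhibited. EC50 by sigmoidal variable-slope regression.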
# T1 sequence (P31749 whole entry E17K): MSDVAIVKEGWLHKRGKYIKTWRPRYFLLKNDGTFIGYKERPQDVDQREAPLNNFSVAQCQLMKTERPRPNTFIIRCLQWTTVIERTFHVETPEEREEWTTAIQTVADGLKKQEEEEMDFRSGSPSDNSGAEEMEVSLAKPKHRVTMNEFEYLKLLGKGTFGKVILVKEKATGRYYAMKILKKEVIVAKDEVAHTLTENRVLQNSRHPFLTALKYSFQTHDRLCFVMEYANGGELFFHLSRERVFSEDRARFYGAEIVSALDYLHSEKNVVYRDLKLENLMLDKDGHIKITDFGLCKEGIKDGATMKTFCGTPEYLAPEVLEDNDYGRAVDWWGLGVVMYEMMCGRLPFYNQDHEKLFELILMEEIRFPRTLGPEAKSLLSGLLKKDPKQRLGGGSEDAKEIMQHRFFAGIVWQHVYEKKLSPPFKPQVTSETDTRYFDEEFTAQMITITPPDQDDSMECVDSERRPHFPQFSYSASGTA
row,IC50 [nM],SMILES
1,< 15,"Cn1cccc(-c2ccc3nc(-c4cccnc4N)n(-c4ccc(CN5CCC(Nc6ccnc(C#N)n6)CC5)cc4)c3n2)c1=O [Example 261, 4-((1-(4-(2-(2-Aminopyridin-3-yl)-5-(1-methyl-2-oxo-1,2-dihydropyridin-3-yl)-3H-imidazo[4,5-b]pyridin-3-yl)benzyl)piperidin-4-yl)amino)pyrimidine-2-carbonitrile]"
2,< 15,"N#Cc1nccc(NC2CCN(Cc3ccc(-n4c(-c5cccnc5N)nc5ccc(C6CCC6)nc54)cc3)CC2)n1 [Example 262, 4-((1-(4-(2-(2-aminopyridin-3-yl)-5-cyclobutyl-3H-imidazo[4,5-b]pyridin-3-yl)benzyl)piperidin-4-yl)amino)pyrimidine-2-carbonitrile]"
3,15 to 60,"N#Cc1nccc(NC2CCN(Cc3ccc(-n4c(-c5cccnc5N)nc5ccc(C6=CCCCC6)nc54)cc3)CC2)n1 [Example 263, 4-((1-(4-(2-(2-Aminopyridin-3-yl)-5-(cyclohex-1-en-1-yl)-3H-imidazo[4,5-b]pyridin-3-yl)benzyl)piperidin-4-yl)amino)pyrimidine-2-carbonitrile]"
4,60 to 600,"N#Cc1nccc(NC2CCN(Cc3ccc(-n4c(-c5cccnc5N)nc5ccc(-c6ccc(=O)[nH]c6)nc54)cc3)CC2)n1 [Example 266, 4-((1-(4-(2-(2-Aminopyridin-3-yl)-5-(6-oxo-1,6-dihydropyridin-3-yl)-3H-imidazo[4,5-b]pyridin-3-yl)benzyl)piperidin-4-yl)amino)pyrimidine-2-carbonitrile]"
5,< 15,"N#Cc1nccc(NC2CCN(Cc3ccc(-n4c(-c5cccnc5N)nc5ccc(-c6cccc(=O)[nH]6)nc54)cc3)CC2)n1 [Example 267, 4-((1-(4-(2-(2-Aminopyridin-3-yl)-5-(6-oxo-1,6-dihydropyridin-2-yl)-3H-imidazo[4,5-b]pyridin-3-yl)benzyl)piperidin-4-yl)amino)pyrimidine-2-carbonitrile]"
6,< 15,"N#Cc1ncnc(N2C[C@H]3C[C@@H]2CN3Cc2ccc(-n3c(-c4cccnc4N)nc4ccc(-c5ccccc5)nc43)cc2)n1 [Example 272, 4-((1R,4R)-5-(4-(2-(2-aminopyridin-3-yl)-5-phenyl-3H-imidazo[4,5-b]pyridin-3-yl)benzyl)-2,5-diazabicyclo[2.2.1]heptan-2-yl)-1,3,5-triazine-2-carbonitrile]"
7,< 15,"C[C@@H]1CN(Cc2ccc(-n3c(-c4cccnc4N)nc4ccc(-c5ccccc5)nc43)cc2)CCN1c1ncnc(C#N)n1 [Example 273, (R)-4-(4-(4-(2-(2-Aminopyridin-3-yl)-5-phenyl-3H-imidazo[4,5-b]pyridin-3-yl)benzyl)-2-methylpiperazin-1-yl)-1,3,5-triazine-2-carbonitrile]"
8,15 to 60,"N#Cc1ncnc(NC2CCCN(Cc3ccc(-n4c(-c5cccnc5N)nc5ccc(-c6ccccc6)nc54)cc3)CC2)n1 (stereo not drawn) [Example 278, 4-((1-(4-(2-(2-Aminopyridin-3-yl)-5-phenyl-3H-imidazo[4,5-b]pyridin-3-yl)benzyl)azepan-4-yl)amino)-1,3,5-triazine-2-carbonitrile]"
9,< 15,"CC(C)c1ccc2nc(-c3cccnc3N)n(-c3ccc(CN4CCC(Nc5ccnc(C#N)n5)CC4)cc3)c2n1 [Example 286, 4-((1-(4-(2-(2-Aminopyridin-3-yl)-5-isopropyl-3H-imidazo[4,5-b]pyridin-3-yl)benzyl)piperidin-4-yl)amino)pyrimidine-2-carbonitrile]"

# The next lines start with the molecule.
row,SMILES,IC50 [nM]
1,"Cn1cccc(-c2ccc3nc(-c4cccnc4N)n(-c4ccc(CN5CCN(c6ccnc(C#N)n6)CC5)cc4)c3n2)c1=O [Example 260, 4-(4-(4-(2-(2-aminopyridin-3-yl)-5-(1-methyl-2-oxo-1,2-dihydropyridin-3-yl)-3H-imidazo[4,5-b]pyridin-3-yl)benzyl)piperazin-1-yl)pyrimidine-2-carbonitrile]",15 to 60
2,"N#Cc1nccc(NC2CCN(Cc3ccc(-n4c(-c5cccnc5N)nc5ccc(C6CCCCC6)nc54)cc3)CC2)n1 [Example 264, 4-((1-(4-(2-(2-Aminopyridin-3-yl)-5-cyclohexyl-3H-imidazo[4,5-b]pyridin-3-yl)benzyl)piperidin-4-yl)amino)pyrimidine-2-carbonitrile]",< 15
3,"N#Cc1cccc(-c2ccc3nc(-c4cccnc4N)n(-c4ccc(CN5CCC(Nc6ccnc(C#N)n6)CC5)cc4)c3n2)c1 [Example 265, 4-((1-(4-(2-(2-Aminopyridin-3-yl)-5-(3-cyanophenyl)-3H-imidazo[4,5-b]pyridin-3-yl)benzyl)piperidin-4-yl)amino)pyrimidine-2-carbonitrile]",< 15
4,"N#Cc1ncnc(N2CCC3(CC2)CN(Cc2ccc(-n4c(-c5cccnc5N)nc5ccc(-c6ccccc6)nc54)cc2)C3)n1 [Example 268, 4-(2-(4-(2-(2-Aminopyridin-3-yl)-5-phenyl-3H-imidazo[4,5-b]pyridin-3-yl)benzyl)-2,7-diazaspiro[3.5]nonan-7-yl)-1,3,5-triazine-2-carbonitrile]",< 15
5,"N#Cc1ncnc(N2CC[C@]3(CCN(Cc4ccc(-n5c(-c6cccnc6N)nc6ccc(-c7ccccc7)nc65)cc4)C3)C2)n1 [Example 269, (S)-4-(7-(4-(2-(2-Aminopyridin-3-yl)-5-phenyl-3H-imidazo[4,5-b]pyridin-3-yl)benzyl)-2,7-diazaspiro[4.4]nonan-2-yl)-1,3,5-triazine-2-carbonitrile]",< 15
6,"N#Cc1ncnc(N2C3CCC2CN(Cc2ccc(-n4c(-c5cccnc5N)nc5ccc(-c6ccccc6)nc54)cc2)C3)n1 [Example 270, 4-(3-(4-(2-(2-Aminopyridin-3-yl)-5-phenyl-3H-imidazo[4,5-b]pyridin-3-yl)benzyl)-3,8-diazabicyclo[3.2.1]octan-8-yl)-1,3,5-triazine-2-carbonitrile]",60 to 600
7,"N#Cc1ncnc(N2CC3CCC(C2)N3Cc2ccc(-n3c(-c4cccnc4N)nc4ccc(-c5ccccc5)nc43)cc2)n1 [Example 271, 4-(8-(4-(2-(2-Aminopyridin-3-yl)-5-phenyl-3H-imidazo[4,5-b]pyridin-3-yl)benzyl)-3,8-diazabicyclo[3.2.1]octan-3-yl)-1,3,5-triazine-2-carbonitrile]",15 to 60
8,"C[C@H]1CN(Cc2ccc(-n3c(-c4cccnc4N)nc4ccc(-c5ccccc5)nc43)cc2)CCN1c1ncnc(C#N)n1 [Example 274, (S)-4-(4-(4-(2-(2-Aminopyridin-3-yl)-5-phenyl-3H-imidazo[4,5-b]pyridin-3-yl)benzyl)-2-methylpiperazin-1-yl)-1,3,5-triazine-2-carbonitrile]",15 to 60
9,"C[C@H]1CN(Cc2ccc(-n3c(-c4cccnc4N)nc4ccc(-c5ccccc5)nc43)cc2)C[C@H](C)N1c1ncnc(C#N)n1 [Example 275, 4-((2S,6S)-4-(4-(2-(2-Aminopyridin-3-yl)-5-phenyl-3H-imidazo[4,5-b]pyridin-3-yl)benzyl)-2,6-dimethylpiperazin-1-yl)-1,3,5-triazine-2-carbonitrile]",< 15
10,"N#Cc1ncnc(N2CCN(Cc3ccc(-n4c(-c5cccnc5N)nc5ccc(-c6ccccc6)nc54)cc3)CC23CC3)n1 [Example 276, 4-(7-(4-(2-(2-aminopyridin-3-yl)-5-phenyl-3H-imidazo[4,5-b]pyridin-3-yl)benzyl)-4,7-diazaspiro[2.5]octan-4-yl)-1,3,5-triazine-2-carbonitrile]",< 15
11,"C[C@@H]1CN(Cc2ccc(-n3c(-c4cccnc4N)nc4ccc(-c5ccccc5)nc43)cc2)C[C@H](C)N1c1ncnc(C#N)n1 [Example 277, 4-((2R,6S)-4-(4-(2-(2-aminopyridin-3-yl)-5-phenyl-3H-imidazo[4,5-b]pyridin-3-yl)benzyl)-2,6-dimethylpiperazin-1-yl)-1,3,5-triazine-2-carbonitrile]",15 to 60
12,"N#Cc1ncnc(NC2COCCN(Cc3ccc(-n4c(-c5cccnc5N)nc5ccc(-c6ccccc6)nc54)cc3)C2)n1 (stereo not drawn) [Example 279, 4-((4-(4-(2-(2-Aminopyridin-3-yl)-5-phenyl-3H-imidazo[4,5-b]pyridin-3-yl)benzyl)-1,4-oxazepan-6-yl)amino)-1,3,5-triazine-2-carbonitrile]",< 15
13,"Cc1ccc2nc(-c3cccnc3N)n(-c3ccc(CN4CCC(Nc5ccnc(C#N)n5)CC4)cc3)c2n1 [Example 280, 4-((1-(4-(2-(2-Aminopyridin-3-yl)-5-methyl-3H-imidazo[4,5-b]pyridin-3-yl)benzyl)piperidin-4-yl)amino)pyrimidine-2-carbonitrile]",< 15
14,"N#Cc1nccc(N2CCN(Cc3ccc(-n4c(-c5cccnc5N)nc5ccc(-c6ccccc6F)nc54)cc3)CC2)n1 [Example 281, 4-(4-(4-(2-(2-Aminopyridin-3-yl)-5-(2-fluorophenyl)-3H-imidazo[4,5-b]pyridin-3-yl)benzyl)piperazin-1-yl)pyrimidine-2-carbonitrile]",< 15
15,"N#Cc1ccnc(N2CCN(Cc3ccc(-n4c(-c5cccnc5N)nc5ccc(-c6ccccc6F)nc54)cc3)CC2)n1 [Example 282, 2-(4-(4-(2-(2-Aminopyridin-3-yl)-5-(2-fluorophenyl)-3H-imidazo[4,5-b]pyridin-3-yl)benzyl)piperazin-1-yl)pyrimidine-4-carbonitrile]",15 to 60
16,"N#Cc1ccnc(N2CCN(Cc3ccc(-n4c(-c5cccnc5N)nc5ccc(N6CCCNC(=O)C6)nc54)cc3)CC2)n1 [Example 283, 2-(4-(4-(2-(2-Aminopyridin-3-yl)-5-(3-oxo-1,4-diazepan-1-yl)-3H-imidazo[4,5-b]pyridin-3-yl)benzyl)piperazin-1-yl)pyrimidine-4-carbonitrile]",15 to 60
17,"N#Cc1cc(N2CCN(Cc3ccc(-n4c(-c5cccnc5N)nc5ccc(N6CCCNC(=O)C6)nc54)cc3)CC2)ncn1 [Example 284, 6-(4-(4-(2-(2-Aminopyridin-3-yl)-5-(3-oxo-1,4-diazepan-1-yl)-3H-imidazo[4,5-b]pyridin-3-yl)benzyl)piperazin-1-yl)pyrimidine-4-carbonitrile]",60 to 600
18,"N#Cc1ncnc(N2CC3CCC(C2)N3Cc2ccc(-n3c(-c4cccnc4N)nc4ccc(N5CCOCC5)nc43)cc2)n1 [Example 285, 4-(8-(4-(2-(2-Aminopyridin-3-yl)-5-morpholino-3H-imidazo[4,5-b]pyridin-3-yl)benzyl)-3,8-diazabicyclo[3.2.1]octan-3-yl)-1,3,5-triazine-2-carbonitrile]",< 15
